Experimental data reported in US9695154B2, “Heteroaryl inhibitors of sumo activating enzyme” (MILLENNIUM PHARMACEUTICALS, INC., priority 2013, dated 2017).

Target: T1, recombinant human SAE enzyme (Homo sapiens, UniProt Q9UBT2)
T1 sequence (Q9UBT2 1-640): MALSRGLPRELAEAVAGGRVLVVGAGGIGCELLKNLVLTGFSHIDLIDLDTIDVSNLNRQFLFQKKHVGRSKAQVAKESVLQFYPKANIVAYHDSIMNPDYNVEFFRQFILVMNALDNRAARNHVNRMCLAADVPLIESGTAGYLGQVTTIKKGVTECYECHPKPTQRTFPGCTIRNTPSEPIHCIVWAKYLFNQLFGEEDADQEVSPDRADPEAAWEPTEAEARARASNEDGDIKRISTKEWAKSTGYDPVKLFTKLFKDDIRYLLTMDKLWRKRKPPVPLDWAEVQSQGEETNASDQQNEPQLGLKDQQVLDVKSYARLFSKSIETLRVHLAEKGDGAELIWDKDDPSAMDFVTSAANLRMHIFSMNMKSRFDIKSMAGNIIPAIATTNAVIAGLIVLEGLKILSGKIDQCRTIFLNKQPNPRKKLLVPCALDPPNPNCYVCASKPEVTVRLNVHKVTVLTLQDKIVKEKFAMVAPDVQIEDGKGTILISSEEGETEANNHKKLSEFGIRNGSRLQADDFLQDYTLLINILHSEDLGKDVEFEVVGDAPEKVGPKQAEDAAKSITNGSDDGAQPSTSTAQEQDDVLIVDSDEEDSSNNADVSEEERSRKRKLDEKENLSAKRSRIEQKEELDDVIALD
T1 sequence (Q9UBE0 1-346 partner): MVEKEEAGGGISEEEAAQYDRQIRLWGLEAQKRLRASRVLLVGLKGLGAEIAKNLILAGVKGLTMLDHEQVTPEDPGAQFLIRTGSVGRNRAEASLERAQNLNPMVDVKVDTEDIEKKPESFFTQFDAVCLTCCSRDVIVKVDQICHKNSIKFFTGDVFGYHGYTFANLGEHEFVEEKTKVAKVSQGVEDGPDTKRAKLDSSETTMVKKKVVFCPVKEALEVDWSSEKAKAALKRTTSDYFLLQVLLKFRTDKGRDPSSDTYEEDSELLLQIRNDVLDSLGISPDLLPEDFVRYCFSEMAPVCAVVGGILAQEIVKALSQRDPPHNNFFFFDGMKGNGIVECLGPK
Assay: SAE HTRF Enzyme Assay
Type: biochemical
Details: for IC50: class symbols A-C; for inhibition at 0.111 µM: read-out: Percent Inhibition
Procedure, shortened: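 Sumoylation of Ubc9-GST by recombinant human SAE was followed by time-resolved FRET between Eu-cryptate anti-Flag and allophycocyanin anti-GST antibodies. The enzyme step used low ATP (0.5 μM) at pH 7.5 and ran 105 min at 24° C.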

[1] = compound concentration 0.111 μM

SMILES | IC50 | inhibition at 0.111 µM [1] | Percent Inhibition (compound concentration 0.111 μM, 0.111 µM)
NS(=O)(=O)OC[C@H]1C[C@@H](Nc2ncncc2C(=O)c2ccn(Cc3ccc(Cl)c(OC(F)(F)F)c3)n2)C[C@@H]1O [Compound I-152, [(1R,2S,4R)-4-{[5-({1-[4-Chloro-3-(trifluoromethoxy)benzyl]-1H-pyrazol-3-yl}carbonyl)pyrimidin-4-yl]amino}-2-hydroxycyclopentyl]methyl sulfamate] | < 0.01 µM | 94% | –
NS(=O)(=O)OC[C@H]1C[C@@H](Nc2ncncc2C(=O)c2ccn(Cc3cccc(OC(F)(F)F)c3)n2)[C@@H](F)[C@@H]1O [Compound I-23, [(1R,2R,3R,4R)-3-Fluoro-2-hydroxy-4-{[5-({1-[3-(trifluoromethoxy)benzyl]-1H-pyrazol-3-yl}carbonyl)pyrimidin-4-yl]amino}cyclopentyl]methyl sulfamate] | < 0.01 µM | 98% | –
NS(=O)(=O)OC[C@H]1C[C@@H](Nc2ncncc2C(=O)c2ccn(Cc3cc(F)c(F)cc3F)n2)C[C@@H]1O [Compound I-329, {(1R,2S,4R)-2-hydroxy-4-[(5-{[1-(2,4,5-trifluorobenzyl)-1H-pyrazol-3-yl]carbonyl}pyrimidin-4-yl)amino]cyclopentyl}methyl sulfamate] | < 0.01 µM | 93% | –
NS(=O)(=O)OC[C@H]1C[C@@H](Nc2ncncc2C(=O)c2ccn(Cc3ccccc3)n2)[C@@H](F)[C@@H]1O [Compound I-317, [(1R,2R,3R,4R)-4-({5-[(1-Benzyl-1H-pyrazol-3-yl)carbonyl]pyrimidin-4-yl}amino)-3-fluoro-2-hydroxycyclopentyl]methyl sulfamate] | < 0.01 µM | 96% | –
C=CCn1ccc(C(=O)c2cncnc2N[C@@H]2C[C@H](COS(N)(=O)=O)[C@@H](O)C2)c1 [Compound I-291, [(1R,2S,4R)-4-({5-[(1-allyl-1H-pyrrol-3-yl)carbonyl]pyrimidin-4-yl}amino)-2-hydroxycyclopentyl]methyl sulfamate] | 0.01 to 0.1 µM | 79% | –
NS(=O)(=O)OC[C@H]1C[C@@H](Nc2ccncc2C(=O)c2ccn(Cc3ccc(Cl)c(Cl)c3)n2)C[C@@H]1O [Compound I-78, {(1R,2S,4R)-4-[(3-{[1-(3,4-dichlorobenzyl)-1H-pyrazol-3-yl]carbonyl}pyridin-4-yl)amino]-2-hydroxycyclopentyl}methyl sulfamate] | < 0.01 µM | 97% | –
NS(=O)(=O)OC[C@H]1C[C@@H](Nc2ncncc2C(=O)c2ccn(Cc3ccc(Cl)cc3F)n2)C[C@@H]1O [Compound I-191, {(1R,2S,4R)-4-[(5-{[1-(4-chloro-2-fluorobenzyl)-1H-pyrazol-3-yl]carbonyl}pyrimidin-4-yl)amino]-2-hydroxycyclopentyl}methyl sulfamate] | < 0.01 µM | 92% | –
NS(=O)(=O)OC[C@H]1C[C@@H](Nc2ccncc2C(=O)c2ccn(Cc3ccccc3)n2)[C@H](O)[C@@H]1O [Compound I-56, [(1R,2R,3S,4R)-4-({3-[(1-Benzyl-1H-pyrazol-3-yl)carbonyl]pyridin-4-yl}amino)-2,3-dihydroxycyclopentyl]methyl sulfamate] | < 0.01 µM | 100% | –
NS(=O)(=O)OC[C@H]1C[C@@H](Nc2ncncc2C(=O)c2ccn(Cc3ccc(C(F)(F)F)o3)n2)[C@H](O)[C@@H]1O [Compound I-130, [(1R,2R,3S,4R)-2,3-dihydroxy-4-({5-[(1-{[5-(trifluoromethyl)-2-furyl]methyl}-1H-pyrazol-3-yl)carbonyl]pyrimidin-4-yl}amino)cyclopentyl]methyl sulfamate] | < 0.01 µM | 98% | –
NS(=O)(=O)OC[C@H]1C[C@@H](Nc2ncncc2C(=O)c2ccn(Cc3ccc(F)c(OC(F)(F)F)c3)c2)C[C@@H]1O [Compound I-211, [(1R,2S,4R)-4-{[5-({1-[4-fluoro-3-(trifluoromethoxy)benzyl]-1H-pyrrol-3-yl}carbonyl)pyrimidin-4-yl]amino}-2-hydroxycyclopentyl]methyl sulfamate] | < 0.01 µM | 97% | –
C#Cc1cccc([C@@H](C)n2ccc(C(=O)c3cncnc3N[C@@H]3C[C@H](COS(N)(=O)=O)[C@@H](O)C3)n2)c1 (single isomer, unassigned) [Compound I-10] | 0.01 to 0.1 µM | 61% | –
Cc1cc(C(=O)c2cncnc2N[C@@H]2C[C@H](COS(N)(=O)=O)[C@@H](O)C2)nn1C(C)c1cccc(Cl)c1 (single isomer, unassigned) [Compound I-365, [(1R,2S,4R)-4-{[5-({1-[(1S)-1-(3-chlorophenyl)ethyl]-5-methyl-1H-pyrazol-3-yl}carbonyl)pyrimidin-4-yl]amino}-2-hydroxycyclopentyl]methyl sulfamate or [(1R,2S,4R)-4-{[5-({1-[(1R)-1-(3-chlorophenyl)ethyl]-5-methyl-1H-pyrazol-3-yl}carbonyl)pyrimidin-4-yl]amino}-2-hydroxycyclopentyl]methyl sulfamate] | 0.01 to 0.1 µM | – | 79%
NS(=O)(=O)OC[C@H]1C[C@@H](Nc2ncncc2C(=O)c2ccn(Cc3ccccc3)c2)[C@H](O)[C@@H]1O [Compound I-217, [(1R,2R,3S,4R)-4-({5-[(1-Benzyl-1H-pyrrol-3-yl)carbonyl]pyrimidin-4-yl}amino)-2,3-dihydroxycyclopentyl]methyl sulfamate] | < 0.01 µM | 98% | –
COc1cccc(Cn2ccc(C(=O)c3cncnc3N[C@@H]3C[C@H](COS(N)(=O)=O)[C@@H](O)C3)n2)n1 [Compound I-295, [(1R,2S,4R)-2-hydroxy-4-{[5-({1-[(6-methoxypyridin-2-yl)methyl]-1H-pyrazol-3-yl}carbonyl)pyrimidin-4-yl]amino}cyclopentyl]methyl sulfamate] | < 0.01 µM | 96% | –
C=C[S+]([O-])c1cccc(Cn2ccc(C(=O)c3cncnc3N[C@@H]3C[C@H](COS(N)(=O)=O)[C@@H](O)[C@H]3O)n2)c1 (mixture of isomers) [Compound I-74, [(1R,2R,3S,4R)-2,3-dihydroxy-4-{[5-({1-[3-((R)-vinylsulfinyl)benzyl]-1H-pyrazol-3-yl}carbonyl)pyrimidin-4-yl]amino}cyclopentyl]methyl sulfamate and [(1R,2R,3S,4R)-2,3-dihydroxy-4-{[5-({1-[3-((S)-vinylsulfinyl)benzyl]-1H-pyrazol-3-yl}carbonyl)pyrimidin-4-yl]amino}cyclopentyl]methyl sulfamate] | < 0.01 µM | 92% | –
C#Cc1cccc(Cn2ccc(C(=O)c3cncnc3N[C@@H]3C[C@H](COS(N)(=O)=O)[C@@H](O)C3)n2)c1 [Compound I-85, {(1R,2S,4R)-4-[(5-{[1-(3-ethynylbenzyl)-1H-pyrazol-3-yl]carbonyl}pyrimidin-4-yl)amino]-2-hydroxycyclopentyl}methyl sulfamate] | < 0.01 µM | 98% | –
COc1ncccc1Cn1ccc(C(=O)c2cncnc2N[C@@H]2C[C@H](COS(N)(=O)=O)[C@@H](O)C2)n1 [Compound I-63, [(1R,2S,4R)-2-hydroxy-4-{[5-({1-[(2-methoxypyridin-3-yl)methyl]-1H-pyrazol-3-yl}carbonyl)pyrimidin-4-yl]amino}cyclopentyl]methyl sulfamate] | 0.01 to 0.1 µM | 87% | –
NS(=O)(=O)OC[C@@H]1C[C@@H](Nc2ncncc2C(=O)c2ccn(Cc3cccc(Br)c3)n2)C[C@@H]1O [Compound I-2, {(1S,2S,4R)-4-[(5-{[1-(3-bromobenzyl)-1H-pyrazol-3-yl]carbonyl}pyrimidin-4-yl)amino]-2-hydroxycyclopentyl}methyl sulfamate] | – | 99% | –
NS(=O)(=O)OC[C@H]1C[C@@H](Nc2ncncc2C(=O)c2ccn(Cc3ccccc3)n2)C(F)(F)[C@@H]1O [Compound I-203, [(1R,2R,4R)-4-({5-[(1-benzyl-1H-pyrazol-3-yl)carbonyl]pyrimidin-4-yl}amino)-3,3-difluoro-2-hydroxycyclopentyl]methyl sulfamate] | < 0.01 µM | 94% | –
NS(=O)(=O)OC[C@H]1C[C@@H](Nc2ncncc2C(=O)c2ccn(Cc3ccc(C(F)(F)F)o3)c2)[C@@H](F)[C@@H]1O [Compound I-209, [(1R,2R,3R,4R)-3-fluoro-2-hydroxy-4-({5-[(1-{[5-(trifluoromethyl)-2-furyl]methyl}-1H-pyrrol-3-yl)carbonyl]pyrimidin-4-yl}amino)cyclopentyl]methyl sulfamate] | < 0.01 µM | 99% | –
